From patent publication US10604512B2, “3-(1H-indol-2-yl)-1H-indazoles and therapeutic uses thereof” (Samumed, LLC, priority 2015, dated 2020)
pEC50: −log10 of the molar value.

Tests used:
Assay type in all cases: cell-based
[1] = system: Wnt activity (Sp5-Luc reporter, TCF/LEF binding sites) in SW480 colon carcinoma cells; experiment: Screening assay for Wnt activity: Sp5-Luc reporter gene assay in stably transduced SW480 colon carcinoma cells; details: Homo sapiens, overnight incubation, 10-point curve from 10 μM
Description: The screening assay for Wnt activity is described as follows. Reporter cell lines can be generated by stably transducing cancer cell lines (e.g., colon cancer) or primary cells (e.g., IEC-6 intestinal cells) with a lentiviral construct that includes a Wnt-responsive promoter driving expression of the firefly luciferase gene.
SW480 colon carcinoma cells were transduced with a lentiviral vector expressing luciferase with a human Sp5 promoter consisting of a sequence of eight TCF/LEF binding sites. SW480 cells stably expressing the Sp5-Luc reporter gene and a hygromycin resistance gene were selected by treatment with 150 μg/mL of hygromycin for 7 days. These stably transduced SW480 cells were expanded in cell culture and used for all further screening activities. Each compound was dissolved in DMSO as a 10 mM stock and used to prepare compound source plates. Serial dilution (1:3, 10-point dose-response curves starting from 10 μM) and compound transfer was performed using the ECHO 550 (Labcyte, Sunnyvale, Calif.) into 384-well white solid bottom assay plates (Greiner Bio-One) with appropriate DMSO backfill for a final DMSO concentration of 0.1%. For Sp5-Luc reporter gene assays, the cells were plated at 4,000 cells/well in 384-well plates with medium containing 1% fetal bovine serum and incubated overnight at 37° C. and 5% CO2. Following incubation, 20 μl of BrightGlo luminescence reagent (Promega) was added to each well of the 384-well assay plates. The plates were placed on an orbital shaker for 2 min and then luminescence was quantified using the Envision (Perkin Elmer) plate reader. Readings were normalized to DMSO only treated cells, and normalized activities were utilized for EC50 calculations using the dose-response log (inhibitor) vs. response variable slope (four parameters) nonlinear regression feature available in GraphPad Prism 5.0 (or Dotmatics). For EC50 of >10 μM, the percent inhibition at 10 μM is provided.

[2] = system: SW480 colon cancer cells; experiment: Cell viability assay (CellTiter-Blue) in SW480 colon cancer cells; details: Homo sapiens, 96 h, four days, CellTiter-Blue
Protocol: Representative compounds were screened using the following assay procedure to assess the effect on cell viability as described below.
Each compound was dissolved in DMSO as a 10 mM stock and used to prepare compound source plates. Serial dilution (1:3, 8-point dose-response curves from 10 μM to 0.0045 μM) and compound transfer was performed using the ECHO 550 (Labcyte, Sunnyvale, Calif.) into 96-well clear bottom, black-walled plates (Corning-Costar).
Approximately 2×10^3 SW480 colon cancer cells were seeded into each well and allowed to incubate in the presence or absence of compound for four days at 37° C./5% CO2. Eight replicates of DMSO-treated cells served as controls and cells treated with compound were performed in duplicate.
After incubation, 20 μL of CellTiter-Blue (Promega) was added to each well allowed to incubate for approximately 3 hours. This reagent was a buffered solution which contains resazurin, metabolically active cells were able to reduce rezarurin (blue) into resorufin (pink) which was highly fluorescent. This measured fluorescence was used as a readout for cell viability.
After incubation, the plates were read at Ex 560 nm Em 590 nm (Cytation 3, BioTek). Dose-response curves were generated and EC50 concentration values were calculated using non-linear regression curve fit in the GraphPad Prism (San Diego, Calif.) or Dotmatics' Studies Software (Bishops Stortford, UK). For EC50 of >10 μM, the percent inhibition at 10 μM is provided.

[3] = system: Primary human fibroblasts derived from IPF patients (LL29 cells) treated with TGF-β1; experiment: Inhibition of the fibrotic process: αSMA staining in TGF-β1-treated primary human fibroblasts from IPF patients (LL29 cells); details: Fibroblast, 96 h, % αSMA-positive LL29 cells, TGF-β1 20 ng/mL, 4 days
Description: Representative compounds were screened using primary human fibroblasts (derived from IPF patients) treated with TGF-β1 to determine their ability to inhibit the fibrotic process.
Primary human fibroblasts derived from IPF patients (LL29 cells) [^1Xiaoqiu Liu, et. al., “Fibrotic Lung Fibroblasts Show Blunted Inhibition by cAMP Due to Deficient cAMP Response Element-Binding Protein Phosphorylation”, Journal of Pharmacology and Experimental Therapeutics (2005), 315(2), 678-687; ^2Watts, K. L., et. al., “RhoA signaling modulates cyclin D1 expression in human lung fibroblasts; implications for idiopathic pulmonary fibrosis”, Respiratory Research (2006), 7(1), 88] were obtained from American Type Culture Collection (ATCC) and expanded in F12 medium supplemented with 15% Fetal Bovine Serum and Penicillin/Streptomycin.
Each compound was dissolved in DMSO as a 10 mM stock and used to prepare compound source plates. Serial dilution (1:2, 11-point dose-response curves from 10 μM to […]) and compound transfer was performed using the ECHO 550 (Labcyte, Sunnyvale, Calif.) into 384-well clear bottom assay plates (Greiner Bio-One) with appropriate DMSO backfill for a final DMSO concentration of 0.1%. LL29 cells are plated at 1,500 cells/well in 80 μL/well F12 medium supplemented with 1% Fetal Bovine Serum. One hour after addition of the cells, TGF-β1 (Peprotech; 20 ng/mL) was added to the plates to induce fibrosis (ref 1 and 2 above). Wells treated with TGF-β1 and containing DMSO were used as controls. Cells were incubated at 37° C. and 5% CO2 for 4 days. Following incubation for 4 days, SYTOX green nucleic acid stain (Life Technologies [Thermo Fisher Scientific]) was added to the wells at a final concentration of 1 μM and incubated at room temperature for 30 min. Cells were then fixed using 4% formaldehyde (Electron Microscopy Sciences), washed 3 times with PBS followed by blocking and permeabilization using 3% Bovine Serum Albumin (BSA; Sigma) and 0.3% Triton X-100 (Sigma) in PBS. Cells were then stained with antibody specific to α-smooth muscle actin (αSMA; Abcam) (ref 1 and 2 above) in 3% Bovine Serum Albumin (BSA; Sigma) and 0.3% Triton X-100 (Sigma) in PBS, and incubated overnight at 4° C. Cells were then washed 3 times with PBS, followed by incubation with Alexa Flor-647 conjugated secondary antibody (Life Technologies [Thermo Fisher Scientific]) and DAPI at room temperature for 1 hour. Cells were then washed 3 times with PBS and plates were sealed for imaging. αSMA staining was imaged by excitation at 630 nm and emission at 665 nm and quantified using the Compartmental Analysis program on the CellInsight CX5 (Thermo Scientific). Dead or apoptotic cells were excluded from analysis based on positive SYTOX green staining. % of total cells positive for αSMA were counted in each well and normalized to the average of 11 wells treated with TGF-β1 on the same plate using Dotmatics' Studies Software. The normalized averages (fold change over untreated) of 3 replicate wells for each compound concentration were used to create dose-responses curves and EC50 values were calculated using non-linear regression curve fit in the Dotmatics' Studies Software. For EC50 of >10 μM, the percent inhibition at 10 μM is provided.

[4] = system: IL-6; experiment: Inhibition of IL-6 in LPS-stimulated THP-1 human monocyte cells (HTRF); details: IL-6 inhibition, LPS-stimulated THP-1 cells, HTRF
Protocol: Human monocyte cell line (THP-1 cells; Catalog # TIB-202, ATCC, Manassas, Va.) were cultured in Roswell Park Memorial Institute (RPMI) 1640 Medium (Catalog #21870-100, Buffalo, N.Y.) with 1% L-glutamine, 1% HEPES, 1% Sodium Pyruvate, 2% Sodium Bicarbonate supplemented with 100 units/mL penicillin, 50 μg/mL streptomycin, 2-mercaptoethanol (0.05 mM) [basal medium] and 10% fetal bovine serum (Catalog #16140089, Life Technologies, Carlsbad, Calif.) at 37° C. and 5% CO2.
THP-1 cells were cultured in basal media with 1% FBS for 24 hours before the start of the assay. Each compound was dissolved in DMSO as a 10 mM stock and used to prepare compound source plates. Serial dilution (1:3, 10-point dose-response curves starting from 10 μM) and compound transfer was performed using the ECHO 550 (Labcyte, Sunnyvale, Calif.) into 384-well white low volume assay plates (Greiner Bio-One) with appropriate DMSO backfill for a final DMSO concentration of 0.1%. THP-1 cells were plated at 5000 cells/well in the 384-well plates and incubated at 37° C. for 2 h. 500 ng/mL of LPS was added after 2 hours and cells were incubated for another 22 hours at 37° C. Plates were spun in a centrifuge for 1 minute at […] and a mixture of anti-IL6 XL665, and anti-IL6 Cryptate diluted in reconstitution buffer (Cisbio Inc.) was added to each well. Following incubation for 3 hrs at room temperature, Homogeneous Time-Resolved Fluorescence (HTRF) was measured using the Envision (Perkin Elmer) at 665 nm and […]. The ratio of fluorescence at 665 nm to 620 nm was used as a readout for IL6 quantification. All samples were processed in duplicate. Readings were normalized to DMSO treated cells and normalized activities were utilized for EC50 calculations using the dose-response log (inhibitor) vs. response variable slope (four parameters) nonlinear regression feature available in GraphPad Prism 5.0 (or Dotmatics). For EC50 of >10 μM, the percent inhibition at 10 μM is provided.

SMILES | pEC50 [1] | pEC50 [2] | pEC50 [4] | pEC50 [3]
CC(C)Nc1cncc(-c2ccc3[nH]nc(-c4cc5c(N6CCN(C)CC6)cccc5[nH]4)c3c2)c1 [Compound 236, N-Isopropyl-5-(3-(4-(4-methylpiperazin-1-yl)-1H-indol-2-yl)-1H-indazol-5-yl)pyridin-3-amine] | 6.45 | 6.17 | 6.60 | 6.12
CCCCC(=O)Nc1cncc(-c2ccc3[nH]nc(-c4cc5c(N6CCN(C)CC6)cccc5[nH]4)c3c2)c1 [Compound 243, N-(5-(3-(4-(4-Methylpiperazin-1-yl)-1H-indol-2-yl)-1H-indazol-5-yl)pyridin-3-yl)pentanamide] | 6.18 | 5.74 | 7.82 | 5.90
CN1CCN(c2cccc3[nH]c(-c4n[nH]c5ccc(-c6cncc(CN7CCC(F)(F)C7)c6)cc45)cc23)CC1 [Compound 250, 5-(5-((3,3-Difluoropyrrolidin-1-yl)methyl)pyridin-3-yl)-3-(4-(4-methylpiperazin-1-yl)-1H-indol-2-yl)-1H-indazole] | 6.54 | 6.13 | 7.00 | 6.44
O=C(Nc1cncc(-c2ccc3[nH]nc(-c4cc5c(-c6cccs6)cccc5[nH]4)c3c2)c1)C1CCCC1 [Compound 358, N-(5-(3-(4-(Thiophen-2-yl)-1H-indol-2-yl)-1H-indazol-5-yl)pyridin-3-yl) cyclopentanecarboxamide] | 5.91 | 5.96 | 6.14 | 7.68
CC(C)CC(=O)Nc1cncc(-c2ccc3[nH]nc(-c4cc5c(-c6cc(F)cc(NCCN(C)C)c6)cccc5[nH]4)c3c2)c1 [Compound 450, N-(5-(3-(4-(3-((2-(Dimethylamino)ethyl)amino)-5-fluorophenyl)-1H-indol-2-yl)-1H-indazol-5-yl)pyridin-3-yl)-3-methylbutanamide] | 6.86 | 6.52 | 5.89 | 6.72
Cc1ccncc1-c1ccc2[nH]nc(-c3cc4c(-c5cc(F)cc(NCCN(C)C)c5)cccc4[nH]3)c2c1 [Compound 453, N^1-(3-Fluoro-5-(2-(5-(4-methylpyridin-3-yl)-1H-indazol-3-yl)-1H-indol-4-yl)phenyl)-N^2,N^2-dimethylethane-1,2-diamine] | 6.58 | 6.19 | 6.61 | 5.75

Second part, led by results:

pEC50 [1] | pEC50 [2] | pEC50 [4] | SMILES | pEC50 [3]
7.40 | 6.95 | 6.74 | Nc1cncc(-c2ccc3[nH]nc(-c4cc5c(-c6ccsc6)cccc5[nH]4)c3c2)c1 [Compound 283, 5-(3-(4-(Thiophen-3-yl)-1H-indol-2-yl)-1H-indazol-5-yl)pyridin-3-amine] | 6.09
6.35 | 6.20 | 6.70 | CN(C)c1cncc(-c2ccc3[nH]nc(-c4cc5c(-c6ccoc6)cccc5[nH]4)c3c2)c1 [Compound 315, 5-(3-(4-(Furan-3-yl)-1H-indol-2-yl)-1H-indazol-5-yl)-N,N-dimethylpyridin-3-amine] | 5.37
6.73 | 6.35 | 6.23 | c1cc(-c2ccoc2)c2cc(-c3n[nH]c4ccc(-c5cncc(CN6CCCCC6)c5)cc34)[nH]c2c1 [Compound 323, 3-(4-(Furan-3-yl)-1H-indol-2-yl)-5-(5-(piperidin-1-ylmethyl)pyridin-3-yl)-1H-indazole] | 6.14
6.74 | 6.33 | 6.32 | FC1(F)CCN(Cc2cncc(-c3ccc4[nH]nc(-c5cc6c(-c7ccoc7)cccc6[nH]5)c4c3)c2)C1 [Compound 334, 5-(5-((3,3-Difluoropyrrolidin-1-yl)methyl)pyridin-3-yl)-3-(4-(furan-3-yl)-1H-indol-2-yl)-1H-indazole] | 6.81
6.32 | 5.51 | 6.43 | FC1(F)CCN(Cc2cncc(-c3ccc4[nH]nc(-c5cc6c(-c7cccs7)cccc6[nH]5)c4c3)c2)C1 [Compound 362, 5-(5-((3,3-Difluoropyrrolidin-1-yl)methyl)pyridin-3-yl)-3-(4-(thiophen-2-yl)-1H-indol-2-yl)-1H-indazole] | 6.21
